Assay results reported in patent US10246462B2, “Chemokine receptor modulators and uses thereof” (FLX Bio, Inc., priority 2016, dated 2019).
Counter-ions that a name gives are not always drawn.

The molecules below were run against CCR4 (Homo sapiens (Human), UniProt P51679) (assay: Calcium mobilization (Ca Flux) assay).
Type: cell-based
Procedure: Calcium Mobilization Assay. Calcium mobilization experiments may be performed by labeling the human T-cell line CEM with […] dye (45 min at room temperature), washing with PBS, and re-suspending into flux buffer (HBSS with 1% FBS).

CCR4, sequence (P51679 whole entry): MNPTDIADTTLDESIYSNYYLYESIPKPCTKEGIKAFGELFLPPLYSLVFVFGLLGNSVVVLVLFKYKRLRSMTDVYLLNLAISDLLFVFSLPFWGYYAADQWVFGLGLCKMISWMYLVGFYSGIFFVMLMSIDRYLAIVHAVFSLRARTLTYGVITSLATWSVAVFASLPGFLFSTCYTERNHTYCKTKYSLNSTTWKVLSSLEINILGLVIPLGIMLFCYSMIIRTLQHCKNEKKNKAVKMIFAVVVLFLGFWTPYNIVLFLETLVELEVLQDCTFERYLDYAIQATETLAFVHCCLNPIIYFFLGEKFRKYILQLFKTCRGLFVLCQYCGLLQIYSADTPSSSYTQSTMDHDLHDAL

`C[C@@H]1CC(c2cnc3c(C#N)nn([C@H](C)c4ccc(Cl)cc4Cl)c3n2)=CC[C@@H]1N1CCC[C@H]1CN` [Example 81, 6-((4S,5R)-4-((S)-2-(Aminomethyl)pyrrolidin-1-yl)-5-methylcyclohex-1-en-1-yl)-1-((R)-1-(2,4-dichlorophenyl)ethyl)-1H-pyrazolo[3,4-b]pyrazine-3-carbonitrile hydrochloride] and `C[C@H](c1ccc(Cl)cc1Cl)n1nc(C#N)c2ncc(C3=CC[C@@H](N4CCC[C@H]4CO)[C@@H](C)C3)nc21` [Example 75, 1-((R)-1-(2,4-Dichlorophenyl)ethyl)-6-((4R,5S)-4-((S)-2-(hydroxymethyl)pyrrolidin-1-yl)-5-methylcyclohex-1-en-1-yl)-1H-pyrazolo[3,4-b]pyrazine-3-carbonitrile] fall in the same range of IC50: 100 to 500 nM for the first, 100 to 500 nM for the second.

First: Cc1nn([C@H](C)c2ccc(Cl)cc2Cl)c2nc(N3CCC(N4CCC[C@H]4CC(F)(F)C(=O)O)C(C)C3)cnc12 (stereo partly drawn) [Example 58, 3-((2S)-1-(1-(1-((R)-1-(2,4-Dichlorophenyl)ethyl)-3-methyl-1H-pyrazolo[3,4-b]pyrazin-6-yl)-3-methylpiperidin-4-yl)pyrrolidin-2-yl)-2,2-difluoropropanoic acid 2,2,2-trifluoroacetate]
Second: Cc1nn([C@H](C)c2ccc(Cl)cc2Cl)c2nc(N3CCC(N4CCC[C@H]4CC(F)C(=O)O)C(C)C3)cnc12 (single isomer, unassigned) [Example 56]
The IC50 of the first is higher: > 500 nM for the first, 100 to 500 nM for the second. The second is the more potent here.

`CCC1CN(c2cnc3cnn(C(C)c4ccc(Cl)cc4Cl)c3n2)CCC1N1CCCCC1` (stereo not drawn) [Example 9, 1-(1-(2,4-Dichlorophenyl)ethyl)-6-(3′-ethyl-[1,4′-bipiperidin]-1′-yl)-1H-pyrazolo[3,4-b]pyrazine hydrochloride] and `CC1CN(c2cnc3cnn(C(C)c4ccc(Cl)cc4Cl)c3n2)CCC1N1CCCCC1` (stereo not drawn) [Example 8, 1-(1-(2,4-Dichlorophenyl)ethyl)-6-(3′-methyl-[1,4′-bipiperidin]-1′-yl)-1H-pyrazolo[3,4-b]pyrazine hydrochloride] fall in the same range of IC50: 100 to 500 nM for the first, 100 to 500 nM for the second.

First: Cc1nn([C@H](C)c2ccc(Cl)cc2Cl)c2nc(N3CCC(N4CCC[C@H]4C(C)CC(=O)O)C(C)C3)cnc12 (stereo partly drawn) [Example 60, 3-((2S)-1-(1-(1-((R)-1-(2,4-Dichlorophenyl)ethyl)-3-methyl-1H-pyrazolo[3,4-b]pyrazin-6-yl)-3-methylpiperidin-4-yl)pyrrolidin-2-yl)butanoic acid 2,2,2-trifluoroacetate]
Second: Cc1nn([C@H](C)c2ccc(Cl)cc2Cl)c2nc(N3CCC(N4CCC[C@H]4CC(F)C(=O)O)C(C)C3)cnc12 (single isomer, unassigned) [Example 57]
The IC50 of the first is lower: 100 to 500 nM for the first, > 500 nM for the second. The first is the more potent here.

`Cc1nn([C@H](C)c2ccc(Cl)cc2Cl)c2nc(N3CCC(C4CCCNC4)C(C)C3)cnc12` (stereo partly drawn) [Example 66, 1-((R)-1-(2,4-Dichlorophenyl)ethyl)-3-methyl-6-(3′-methyl-[3,4′-bipiperidin]-1′-yl)-1H-pyrazolo[3,4-b]pyrazine hydrochloride] and `Cc1nn([C@H](C)c2ccc(Cl)cc2Cl)c2nc(N3CC[C@H](N4CCC[C@@H]4C)[C@H](C)C3)cnc12` [Example 22, 1-((R)-1-(2,4-Dichlorophenyl)ethyl)-3-methyl-6-((3R,4S)-3-methyl-4-((S)-2-methylpyrrolidin-1-yl)piperidin-1-yl)-1H-pyrazolo[3,4-b]pyrazine hydrochloride] fall in the same range of IC50: 100 to 500 nM for the first, 100 to 500 nM for the second.

First: CCC1CN(c2cnc3c(C#N)nn(C(C)c4ccc(Cl)cc4Cl)c3n2)CCC1N1CCCCC1 (stereo not drawn) [Example 7, 1-(1-(2,4-Dichlorophenyl)ethyl)-6-(3′-ethyl-[1,4′-bipiperidin]-1′-yl)-1H-pyrazolo[3,4-b]pyrazine-3-carbonitrile 2,2,2-trifluoroacetate]
Second: C[C@H](c1ccc(Cl)cc1Cl)n1nc(C#N)c2ncc(N3CC[C@H](N4CCCCC4)[C@H](CO)C3)nc21 [Example 29, 1-((R)-1-(2,4-Dichlorophenyl)ethyl)-6-((3′R,4′S)-3′-(hydroxymethyl)-[1,4′-bipiperidin]-1′-yl)-1H-pyrazolo[3,4-b]pyrazine-3-carbonitrile hydrochloride]
The IC50 of the first is higher: 100 to 500 nM for the first, < 100 nM for the second. The second is the more potent here.

First: Cc1nn([C@H](C)c2ccc(Cl)cc2Cl)c2nc(N3CC[C@@H](N4CCC[C@@H](CCC(=O)O)C4)[C@@H](C)C3)cnc12 [Example 40, 3-((3S,3′S,4′R)-1′-(1-((R)-1-(2,4-Dichlorophenyl)ethyl)-3-methyl-1H-pyrazolo[3,4-b]pyrazin-6-yl)-3′-methyl-[1,4′-bipiperidin]-3-yl)propanoic acid 2,2,2-trifluoroacetate]
Second: Cc1nn([C@H](C)c2ccc(Cl)cc2Cl)c2nc(N3CC[C@H](N4CCC[C@@H](CC(=O)O)C4)[C@H](C)C3)cnc12 [Example 38, 2-((3S,3′R,4′S)-1′-(1-((R)-1-(2,4-Dichlorophenyl)ethyl)-3-methyl-1H-pyrazolo[3,4-b]pyrazin-6-yl)-3′-methyl-[1,4′-bipiperidin]-3-yl)acetic acid formate]
The IC50 of the first is higher: > 500 nM for the first, 100 to 500 nM for the second.

`CC1CC(c2cnc3c(C(F)(F)F)nn([C@H](C)c4ccc(Cl)cc4Cl)c3n2)=CCC1N1CCC[C@H]1C` (stereo partly drawn) [Example 88, 1-((R)-1-(2,4-Dichlorophenyl)ethyl)-6-(5-methyl-4-((R)-2-methylpyrrolidin-1-yl)cyclohex-1-en-1-yl)-3-(trifluoromethyl)-1H-pyrazolo[3,4-b]pyrazine trifluoroacetic acid] and `CC1CC(c2cnc3c(C#N)nn([C@H](C)c4ccc(Cl)cc4Cl)c3n2)=CCC1N1CCC[C@H]1CC(=O)O` (mixture of isomers) [Example 85, 2-((2S)-1-(4-(3-Cyano-1-((R)-1-(2,4-dichlorophenyl)ethyl)-1H-pyrazolo[3,4-b]pyrazin-6-yl)-6-methylcyclohex-3-en-1-yl)pyrrolidin-2-yl)acetic acid 2,2,2-trifluoroacetate] fall in the same range of IC50: 100 to 500 nM for the first, 100 to 500 nM for the second.

Going from `CC(c1ccc(Cl)cc1Cl)n1nc(C#N)c2ncc(N3CCC(N4CCCCC4)C(F)C3)nc21` (stereo not drawn) [Example 26, 1-(1-(2,4-Dichlorophenyl)ethyl)-6-(3′-fluoro-[1,4′-bipiperidin]-1′-yl)-1H-pyrazolo[3,4-b]pyrazine-3-carbonitrile 2,2,2-trifluoroacetate] to `Cc1nn([C@H](C)c2ccc(Cl)cc2Cl)c2nc(N3CC[C@H](N4CCCC4)[C@H](C)C3)cnc12` [Example 12, 1-((R)-1-(2,4-Dichlorophenyl)ethyl)-3-methyl-6-((3R,4S)-3-methyl-4-(pyrrolidin-1-yl)piperidin-1-yl)-1H-pyrazolo[3,4-b]pyrazine hydrochloride], the IC50 falls from > 500 nM to < 100 nM.

Going from `Cc1nn([C@H](C)c2ccc(Cl)cc2Cl)c2nc(N3CC[C@H](N4CCCCCCC4)[C@H](C)C3)cnc12` [Example 16, 6-((3R,4S)-4-(Azocan-1-yl)-3-methylpiperidin-1-yl)-1-((R)-1-(2,4-dichlorophenyl)ethyl)-3-methyl-1H-pyrazolo[3,4-b]pyrazine hydrochloride] to `CC1CN(c2cnc3c(C(F)(F)F)nn(C(C)c4ccc(Cl)cc4Cl)c3n2)CCC1N1CCCCC1` (stereo not drawn) [Example 10, 1-(1-(2,4-Dichlorophenyl)ethyl)-6-(3′-methyl-[1,4′-bipiperidin]-1′-yl)-3-(trifluoromethyl)-1H-pyrazolo[3,4-b]pyrazine hydrochloride], the IC50 rises from < 100 nM to > 500 nM. The first is the more potent here.

`C[C@@H]1CN(c2cnc3c(C#N)nn([C@H](C)c4ccc(Cl)cc4Cl)c3n2)CC[C@@H]1N1CCC[C@H]1CO` [Example 33, 1-((R)-1-(2,4-Dichlorophenyl)ethyl)-6-((3R,4S)-4-((S)-2-(hydroxymethyl)pyrrolidin-1-yl)-3-methylpiperidin-1-yl)-1H-pyrazolo[3,4-b]pyrazine-3-carbonitrile hydrochloride] and `C[C@@H]1CN(c2cnc3c(C#N)nn([C@H](C)c4ccc(Cl)cc4Cl)c3n2)CC[C@@H]1N1CCC[C@H]1CCC(=O)O` [Example 43, 3-((S)-1-((3R,4S)-1-(3-Cyano-1-((R)-1-(2,4-dichlorophenyl)ethyl)-1H-pyrazolo[3,4-b]pyrazin-6-yl)-3-methylpiperidin-4-yl)pyrrolidin-2-yl)propanoic acid hydrochloride] cannot be ordered by IC50: < 100 nM for the first, < 100 nM for the second.

`CCC1CN(c2cnc3c(C(N)=O)nn(C(C)c4ccc(Cl)cc4Cl)c3n2)CCC1N1CCCCC1` (stereo not drawn) [Example 6, 1-(1-(2,4-Dichlorophenyl)ethyl)-6-(3′-ethyl-[1,4′-bipiperidin]-1′-yl)-1H-pyrazolo[3,4-b]pyrazine-3-carboxamide hydrochloride] and `Cc1nn([C@H](C)c2ccc(Cl)cc2Cl)c2nc(N3CC[C@H](N4CCC[C@H]4CO)[C@H](C(N)=O)C3)cnc12` [Example 63, (3R,4S)-1-(1-((R)-1-(2,4-Dichlorophenyl)ethyl)-3-methyl-1H-pyrazolo[3,4-b]pyrazin-6-yl)-4-((S)-2-(hydroxymethyl)pyrrolidin-1-yl)piperidine-3-carboxamide hydrochloride] fall in the same range of IC50: 100 to 500 nM for the first, 100 to 500 nM for the second.

`Cc1nn([C@H](C)c2ccc(Cl)cc2Cl)c2nc(N3CC[C@H](N4CCC[C@H]4CCS(N)(=O)=O)[C@H](C)C3)cnc12` [Example 52, 2-((S)-1-((3R,4S)-1-(1-((R)-1-(2,4-Dichlorophenyl)ethyl)-3-methyl-1H-pyrazolo[3,4-b]pyrazin-6-yl)-3-methylpiperidin-4-yl)pyrrolidin-2-yl)ethane-1-sulfonamide hydrochloride] and `Cc1nn([C@H](C)c2ccc(Cl)cc2Cl)c2nc(N3CC[C@H](N4CCC[C@H]4CCC(N)=O)[C@H](C)C3)cnc12` [Example 44, 3-((S)-1-((3R,4S)-1-(1-((R)-1-(2,4-Dichlorophenyl)ethyl)-3-methyl-1H-pyrazolo[3,4-b]pyrazin-6-yl)-3-methylpiperidin-4-yl)pyrrolidin-2-yl)propanamide hydrochloride] cannot be ordered by IC50: < 100 nM for the first, < 100 nM for the second.

`CC1C=C(c2cnc3c(C#N)nn([C@H](C)c4ccc(Cl)cc4Cl)c3n2)CCC1N1CCC[C@H]1CCC(=O)O` (stereo partly drawn) [Example 73, 3-((2S)-1-(4-(3-Cyano-1-((R)-1-(2,4-dichlorophenyl)ethyl)-1H-pyrazolo[3,4-b]pyrazin-6-yl)-2-methylcyclohex-3-en-1-yl)pyrrolidin-2-yl)propanoic acid 2,2,2-trifluoroacetate] gave an IC50 of 100 to 500 nM.
